This is an account of results in PMC8191784 (2021).

SMILES strings stand for the structures.

The subject of test [1] is wild-type add aptamer, vector P2-P3 (L2-L3) (RNA, riboswitch, 5-aminoallyl-U at the two dye sites (underlined positions not given)) GCGCGAGCGUUGUAUAAUCCUAAUGAUAUGGUUUGGGAGUUUCUACCAAGAGCCUUAAACUCUUGAUUACAACGCUCGCGC
The test can be described thus: smFRET.

Test [2] concerns L2 mutant (U28A, A29U, G31C, G32C), vector P2-P3 (L2-L3) (RNA, riboswitch, 5-aminoallyl-U at the two dye sites (underlined positions not given)) GCGCGAGCGUUGUAUAAUCCUAAUGAAUUCCUUUGGGAGUUUCUACCAAGAGCCUUAAACUCUUGAUUACAACGCUCGCGC
As to the kind of experiment: smFRET. To be noted: 10 mM Tris-HCl pH 8.0.

Test [3] has as its system L3 mutant, vector P2-P3 (L2-L3) (RNA, riboswitch, 5-aminoallyl-U at the two dye sites (underlined positions not given)) GCGCGAGCGUUGUAUAAUCCUAAUGAUAUGGUUUGGGAGUUUCUACCAAGAGGGUAUAACUCUUGAUUACAACGCUCGCGC
As to the kind of experiment: smFRET. The conditions noted are these: Na+, Mg2+ (see Figure S3); 10 mM Tris-HCl pH 8.0.

Test [4] concerns L2 mutant, vector P1-P3 (RNA, riboswitch, 5-aminoallyl-U at the two dye sites (underlined positions not given)) GCGCGAGCGUUGUAUAAUCCUAAUGAAUUCCUUUGGGAGUUUCUACCAAGAGCCUUAAACUCUUGAUUACAACGCUCGCGC
The test can be described thus: smFRET. The conditions noted are these: 10 mM NaCl, 10 mM MgCl2; 10 mM Tris-HCl pH 8.0; 1 mM DAP.

Test [5] concerns wild-type add aptamer, vector P1-P2 (RNA, riboswitch, 5-aminoallyl-U at the two dye sites (underlined positions not given)) GCGCGAGCGUUGUAUAAUCCUAAUGAUAUGGUUUGGGAGUUUCUACCAAGAGCCUUAAACUCUUGAUUACAAUGCUCGCGC
As to the kind of experiment: smFRET. To be noted: 10 mM NaCl, 10 mM MgCl2; 10 mM Tris-HCl pH 8.0; 1 mM DAP.

Test [6] deals with L2 mutant, vector P1-P2 (RNA, riboswitch, 5-aminoallyl-U at the two dye sites (underlined positions not given)) GCGCGAGCGUUGUAUAAUCCUAAUGAAUUCCUUUGGGAGUUUCUACCAAGAGCCUUAAACUCUUGAUUACAAUGCUCGCGC
The test can be described thus: smFRET. To be noted: 10 mM NaCl, 10 mM MgCl2; 10 mM Tris-HCl pH 8.0; 1 mM DAP.

Test [7] deals with wild-type add aptamer, vector J2/3-P1 (core-P1) (RNA, riboswitch, 5-aminoallyl-U at residue 42 (aptamer numbering) and at a P1 site (position not visible)) GCGCGAGCGUUGUAUAAUCCUAAUGAUAUGGUUUGGGAGUUUCUACCAAGAGCCUUAAACUCUUGAUUACAACGCUCGCGC
The test can be described thus: smFRET. The conditions noted are these: 10 mM NaCl, 10 mM MgCl2; 10 mM Tris-HCl pH 8.0; 1 mM DAP.

Test [8] has as its system L2 mutant, vector J2/3-P1 (core-P1) (RNA, riboswitch, 5-aminoallyl-U at residue 42 (aptamer numbering) and at a P1 site (position not visible)) GCGCGAGCGUUGUAUAAUCCUAAUGAAUUCCUUUGGGAGUUUCUACCAAGAGCCUUAAACUCUUGAUUACAACGCUCGCGC
As to the kind of experiment: smFRET. To be noted: 10 mM NaCl, 10 mM MgCl2; 10 mM Tris-HCl pH 8.0; 1 mM DAP.

Test [9] concerns wild-type add aptamer, SHAPE transcript (RNA, riboswitch) GCGCUUCAUAUAAUCCUAAUGAUAUGGUUUGGGAGUUUCUACCAAGAGCCUUAAACUCUUGAUUAUGAAGUAAUUUAUCGUCACGGUGCAUCUACCAUC
As to the kind of experiment: SHAPE (NMIA) probing. The conditions noted are these: NaCl, 0-10 mM MgCl2; K-HEPES pH 8.0, 37 °C; 2 mM DAP.

Test [10] has as its system L2 mutant aptamer, SHAPE transcript (RNA, riboswitch) GCGCUUCAUAUAAUCCUAAUGAAUUCCUUUGGGAGUUUCUACCAAGAGCCUUAAACUCUUGAUUAUGAAGUAAUUUAUCGUCACGGUGCAUCUACCAUC
As to the kind of experiment: SHAPE (NMIA) probing. The conditions noted are these: NaCl, 0-10 mM MgCl2; K-HEPES pH 8.0, 37 °C; 2 mM DAP.

For the compound `Nc1nc(N)c2[nH]cnc2n1`, the binding result in test [1] (10 mM NaCl, 10 mM MgCl2, 10 mM Tris-HCl pH 8.0, 1 mM DAP, FRET same as Mg2+ alone) was “yes”; in test [2] (10 mM Na+, no Mg2+, aptamer stays in U state without Mg2+), “no”; in test [2] (10 mM NaCl, 10 mM MgCl2, 1 mM DAP), “yes”; in test [3], “yes”; in [4], “yes”; in [5], “yes”. For the same compound, the binding entry in test [6], in test [7], in [8], in test [9] and in [10] was “yes” in each case.
Take `Nc1ncnc2[nH]cnc12`: the binding result is “yes” in test [1] (200 mM NaCl, 3 M urea, adenine titration) and “yes” in [2] (Na+, Mg2+ (see Figure S2), adenine concentration varied).
